From US20080119467A1, “Purine Derivatives, Compositions Containing Them and Use Thereof” (AVENTIS PHARMA S.A., priority 2005, published 2008)
Where a name gives a salt, the structure may show the parent alone.

Molecular target: Hsp82 (Saccharomyces cerevisiae, UniProt P02829)
Sequence (P02829 whole entry): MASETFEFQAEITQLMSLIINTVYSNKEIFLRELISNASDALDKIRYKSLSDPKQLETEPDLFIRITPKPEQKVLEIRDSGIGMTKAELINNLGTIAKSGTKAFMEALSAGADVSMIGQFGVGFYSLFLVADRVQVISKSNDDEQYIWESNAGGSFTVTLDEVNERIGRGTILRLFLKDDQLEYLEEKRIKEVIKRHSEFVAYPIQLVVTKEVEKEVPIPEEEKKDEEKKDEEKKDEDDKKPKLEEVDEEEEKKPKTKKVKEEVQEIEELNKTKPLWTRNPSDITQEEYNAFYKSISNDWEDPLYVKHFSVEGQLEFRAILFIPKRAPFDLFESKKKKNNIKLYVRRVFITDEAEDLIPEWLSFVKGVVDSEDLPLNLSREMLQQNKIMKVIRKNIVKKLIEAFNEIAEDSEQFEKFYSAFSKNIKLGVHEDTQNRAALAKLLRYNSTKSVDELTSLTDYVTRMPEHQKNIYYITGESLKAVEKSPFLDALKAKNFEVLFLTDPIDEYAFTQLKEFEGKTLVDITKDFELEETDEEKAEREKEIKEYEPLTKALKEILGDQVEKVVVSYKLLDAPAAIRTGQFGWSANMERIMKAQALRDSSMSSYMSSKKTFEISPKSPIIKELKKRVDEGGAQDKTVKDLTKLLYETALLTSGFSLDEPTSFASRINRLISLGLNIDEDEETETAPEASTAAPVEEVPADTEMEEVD
Test: Inhibition of the ATPase activity of Hsp82 in the enzymatic coupling system (pyruvate kinase / lactate dehydrogenase)
Assay type: biochemical
Conditions: ATPase activity of Hsp82, PK/LDH enzymatic coupling system, 1 μM Hsp82, 250 μM ATP, 37° C., 340 nm
Excerpt: The formation of ADP due to the ATPase activity of Hsp82 was utilized for developing another method for evaluating the enzymatic activity of this enzyme by the application of an enzymatic coupling system employing pyruvate kinase (PK) and lactate dehydrogenase (LDH). In this spectrophotometric method of the kinetic type, the PK catalyzes the formation of ATP and pyruvate from phosphenol-pyruvate (PEP) and of ADP produced by HSP82. The pyruvate formed, which is a substrate of LDH, is then converted to lactate in the presence of NADH. In this case, the decrease in the concentration of NADH, measured from the decrease in absorbance at a wavelength of 340 nm, is proportional to the concentration of ADP produced by HSP82. The test products are incubated in a reaction volume of 100 μl of compound buffer of 100 mM Hepes-NaOH (pH 7.5), 5 mM MgCl2, 1 mM DTT, 150 mM KCl, 0.3 mM NADH, 2.5 mM PEP and 250 μM ATP. This mixture is preincubated at 37° C. for 30 min before adding 3.77 units of LDH and 3.77 units of PK. The reaction is initiated by addition of the product to be evaluated, at variable concentrations, and of Hsp82, at a concentration of 1 μM. Then the enzymatic activity of Hsp82 is measured, continuously, in a microplate reader, at 37° C., at a wavelength of 340 nm. The initial rate of the reaction is obtained by measuring the slope of the tangent of the recorded curve to the origin. The enzymatic activity is expressed as μM of ADP formed per minute. The effect of the various products tested is expressed as percentage inhibition of the ATPase activity. The inhibitory activities on the ATPase activity of Hsp82 obtained with the products of the invention in the enzymatic coupling system are presented in the following table, according to the following criteria of inhibition of the ATPase activity of Hsp82: […]
`Cl.Clc1nc(N2CCN(Cc3ccccc3)CC2)c2nc[nH]c2n1` [Example 1, 2-Chloro-6-[4-(phenylmethyl)-piperazin-1-yl]-1H-purine monohydrochloride] showed an IC50 of under 1000 nM. `Clc1nc(N2CCN(c3ccccn3)CC2)c2nc[nH]c2n1` [Example 2, 2-chloro-6-[4-(pyridin-2-yl)-piperazin-1-yl]1H-purine] showed an IC50 of under 1000 nM. With `Clc1nc(N2CCOCC2)c2nc[nH]c2n1` [Example 3, 2-chloro-6-(morpholin-4-yl)-1H-purine] the IC50 was 1000 to 10000 nM. With `Clc1nc(N2CCSCC2)c2nc[nH]c2n1` [Example 4, 2-chloro-6-(thiamorpholin-4-yl)-1H-purine] the IC50 was 1000 to 10000 nM. Work on `Clc1nc(N2CCCCC2)c2nc[nH]c2n1` [Example 5, 2-chloro-6-(piperidin-1-yl)-1H-purine] yielded an IC50 of under 1000 nM. `Clc1nc(N2CCN(C(c3ccccc3)c3ccccc3)CC2)c2nc[nH]c2n1` [Example 6, 2-chloro-6-[4-(diphenylmethyl)-piperazin-1-yl]1H-purine] showed an IC50 of 1000 to 10000 nM. Work on `Clc1nc(NC2CCCC2)c2nc[nH]c2n1` [Example 7, 2-chloro-6-cyclopentylamino-1H-purine] yielded an IC50 of 10000 to 100000 nM. With `Clc1nc(N2CCC(Cc3ccccc3)CC2)c2nc[nH]c2n1` [Example 8, 2-Chloro-6-[4-(phenylmethyl)-piperidin-1-yl]-1H-purine monohydrochloride] the IC50 was under 1000 nM. In the case of `Clc1nc(N2CCN(c3ccccc3)CC2)c2nc[nH]c2n1` [Example 9, 2-Chloro-6-(4-phenyl-piperazin-1-yl)-1H-purine monohydrochloride], the IC50 is reported as 1000 to 10000 nM. Work on `COc1ccc(CN2CCN(c3nc(Cl)nc4[nH]cnc34)CC2)cc1OC` [Example 10, 2-chloro-6-[4-(3,4-dimethoxy-phenyl)methyl-piperazin-1-yl]1H-purine] yielded an IC50 of 10000 to 100000 nM. Compound `Clc1nc(N2CCN(c3cccnc3)CC2)c2nc[nH]c2n1` [Example 11, 2-chloro-6-[4-(pyridin-3-yl)-piperazin-1-yl]1H-purine] has an IC50 of 1000 to 10000 nM. Compound `NC(=O)c1cccc(N2CCN(c3nc(Cl)nc4[nH]cnc34)CC2)c1` [Example 12, 2-chloro-6-[4-(3-carboxamido-phenyl)-piperazin-1-yl]1H-purine] has an IC50 of 1000 to 10000 nM. Compound `Clc1cccc(N2CCN(c3nc(Cl)nc4[nH]cnc34)CC2)c1` [Example 13, 2-Chloro-6-[4-(3-chloro-phenyl)-piperazin-1-yl]1H-purine] has an IC50 of 10000 to 100000 nM. Work on `COc1cc(C(=O)N2CCN(c3nc(Cl)nc4[nH]cnc34)CC2)cc(OC)c1OC` [Example 14, 2-chloro-6-[4-(3,4,5-trimethoxy-phenyl)carbonyl-piperazin-1-yl]1H-purine] yielded an IC50 of 10000 to 100000 nM. `O=C(c1ccccc1)N1CCN(c2nc(Cl)nc3[nH]cnc23)CC1` [Example 15, 2-chloro-6-[4-(phenyl)carbonyl-piperazin-1-yl]1H-purine] showed an IC50 of 1000 to 10000 nM. Compound `Clc1nc(N2CCC(Nc3ccccc3)CC2)c2nc[nH]c2n1` [Example 16, 2-Chloro-6-[4-(phenylamino)-piperidin-1-yl]-1H-purine monohydrochloride] has an IC50 of under 1000 nM. `Cc1cccc(N2CCN(c3nc(Cl)nc4[nH]cnc34)CC2)n1` [Example 18, 2-Chloro-6-[4-(6-methyl-pyridin-2-yl)-piperazin-1-yl]-1H-purine monohydrochloride] gave an IC50 of 1000 to 10000 nM. Work on `Clc1nc(N2CCN(c3ncccn3)CC2)c2nc[nH]c2n1` [Example 19, 2-Chloro-6-[4-(pyrimidin-2-yl)-piperazin-1-yl]-1H-purine monohydrochloride] yielded an IC50 of under 1000 nM. In the case of `COc1ccccc1N1CCN(c2nc(Cl)nc3[nH]cnc23)CC1` [Example 20, 2-Chloro-6-[4-(2-methoxy-phenyl)-piperazin-1-yl]-1H-purine monohydrochloride], the IC50 is reported as 10000 to 100000 nM. `Clc1nc(N2CCN(c3ccc4ccccc4n3)CC2)c2nc[nH]c2n1` [Example 21, 2-Chloro-6-[4-(quinolein-2-yl)-piperazin-1-yl]-1H-purine monohydrochloride] gave an IC50 of under 1000 nM. For `FC(F)(F)c1ccccc1N1CCN(c2nc(Cl)nc3[nH]cnc23)CC1` [Example 22, 2-chloro-6-[4-(2-trifluoromethyl-phenyl)-piperazin-1-yl]1H-purine], the IC50 was 1000 to 10000 nM. For `Fc1nc(N2CCN(c3ccccn3)CC2)c2nc[nH]c2n1` [Example 23, 2-Fluoro-[4-(pyridin-2-yl)-piperazin-1-yl]1H-purine], the IC50 was 1000 to 10000 nM. In the case of `FC(F)(F)c1cccnc1N1CCN(c2nc(Cl)nc3[nH]cnc23)CC1` [Example 24, 2-Chloro-6-[4-(3-trifluoromethyl-pyridin-2-yl)-piperazin-1-yl]-9H-purine], the IC50 is reported as 1000 to 10000 nM. For `OCc1cc(F)ccc1N1CCN(c2nc(Cl)nc3[nH]cnc23)CC1` [Example 26, {2-[4-(2-Chloro-9H-purin-6-yl)-piperazin-1-yl]-5-fluoro-phenyl}-methanol], the IC50 was under 1000 nM. Compound `NC(=O)c1cccnc1N1CCN(c2nc(Cl)nc3[nH]cnc23)CC1` [Example 27, 2-[4-(2-Chloro-9H-purin-6-yl)-piperazin-1-yl]-nicotinamide] has an IC50 of under 1000 nM. `Clc1nc(N2CCN(Cc3ccccc3)CC2)c2cc[nH]c2n1` [Example 28, 4-(4-Phenylmethyl-piperazin-1-yl)-2-chloro-7H-pyrrolo[2,3-d]pyrimidine] gave an IC50 of 1000 to 10000 nM. For `Clc1nc(N2CCN(c3ccccn3)CC2)c2cc[nH]c2n1` [Example 29, 2-Chloro-4-(4-pyridin-2-yl-piperazin-1-yl)-7H-pyrrolo[2,3-d]pyrimidine], the IC50 was under 1000 nM. Compound `Cl.Clc1cc(N2CCN(c3ccccn3)CC2)c2nc[nH]c2n1` [Example 30, 5-Chloro-7-(4-pyridin-2-yl-piperazin-1-yl)-3H-imidazo[4,5-b]pyridine monohydrochloride] has an IC50 of under 1000 nM. With `NC(=O)c1ccccc1N1CCN(c2cc(Cl)nc3[nH]cnc23)CC1` [Example 31, 2-[4-(5-Chloro-3H-imidazo[4,5-b]pyridin-7-yl)-piperazin-1-yl]-benzamide] the IC50 was under 1000 nM.

Test system: not given
Test: not given
Conditions: not given
With `Cl.Clc1nc(N2CCN(Cc3ccccc3)CC2)c2nc[nH]c2n1` [Example 1, 2-Chloro-6-[4-(phenylmethyl)-piperazin-1-yl]-1H-purine monohydrochloride] the melting point was 264 to 266 °C. Work on `Clc1cccc(N2CCN(c3nc(Cl)nc4[nH]cnc34)CC2)c1` [Example 13, 2-Chloro-6-[4-(3-chloro-phenyl)-piperazin-1-yl]1H-purine] yielded a melting point of over 260 °C. Compound `Fc1nc(N2CCN(c3ccccn3)CC2)c2nc[nH]c2n1` [Example 23, 2-Fluoro-[4-(pyridin-2-yl)-piperazin-1-yl]1H-purine] has a melting point of over 260 °C. `Clc1nc(N2CCN(Cc3ccccc3)CC2)c2cc[nH]c2n1` [Example 28, 4-(4-Phenylmethyl-piperazin-1-yl)-2-chloro-7H-pyrrolo[2,3-d]pyrimidine] showed a melting point of 250 °C. `Cl.Clc1cc(N2CCN(c3ccccn3)CC2)c2nc[nH]c2n1` [Example 30, 5-Chloro-7-(4-pyridin-2-yl-piperazin-1-yl)-3H-imidazo[4,5-b]pyridine monohydrochloride] showed a melting point of over 260 °C.
